From PMC4488959, “Structural Features of a Bacteroidetes-Affiliated Cellulase Linked with a Polysaccharide Utilization Locus” (Scientific Reports, 2015)

Target: T1, AC2aCel5A (Bacteroidetes bacterium AC2a, UniProt A0A076MPD7, E189A)
T1 construct: signal peptide (residues 1-18) removed; mature 397 residues + C-terminal eight-residue His6-tag (405 residues), tag kept; synthetic gene, pNIC-CH, Escherichia coli
Experiment: X-ray crystal structure (co-crystallization with […] cellotetraose)
Format: binding
Settings: 2.4 Å; subsites -3 to -1, molecule A only; crystals from 0.2 M potassium nitrate, 20% w/v PEG 3350; catalytically inactive mutant; authors consider that bound ligand is likely cellotetraose with fourt

T1 sequence (A0A076MPD7 entry or part of it E189A): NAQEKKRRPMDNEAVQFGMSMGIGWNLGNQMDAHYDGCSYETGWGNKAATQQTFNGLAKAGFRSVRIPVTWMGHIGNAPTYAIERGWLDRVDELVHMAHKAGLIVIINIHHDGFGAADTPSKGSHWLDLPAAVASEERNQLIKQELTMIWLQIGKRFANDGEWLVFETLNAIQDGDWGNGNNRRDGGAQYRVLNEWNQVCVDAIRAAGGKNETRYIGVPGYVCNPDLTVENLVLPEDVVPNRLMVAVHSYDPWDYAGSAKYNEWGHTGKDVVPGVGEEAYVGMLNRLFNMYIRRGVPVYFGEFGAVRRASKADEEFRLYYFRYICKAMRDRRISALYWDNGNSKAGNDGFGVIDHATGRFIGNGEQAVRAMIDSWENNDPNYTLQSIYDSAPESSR

OC[C@H]1O[C@@H](O[C@H]2[C@H](O)[C@@H](O)[C@H](O[C@H]3[C@H](O)[C@@H](O)C(O)O[C@@H]3CO)O[C@@H]2CO)[C@H](O)[C@@H](O)[C@@H]1O (stereo partly shown) [cellotriose]
X-ray crystal structure (co-crystallization with 5 mM cellotetraose): Additional electron density was observed in the active-site cleft of molecule A, and was refined
